Results as given in patent US20240425867A1, “NUCLEIC ACID-BASED ASSEMBLY AND USES THEREOF” (Rheinische Friedrich-Wilhelms-Universität Bonn, priority 2016, published 2024).
“And” between values parts separate entries of the source, which are not always exact repeats. Equal values may be shown once.

What was measured:
H1838 cells [1] = conditions: DxR 8 μM, 37° C., 2 h, non-irradiated
Experimental: For flow cytometry analysis of HyApNc-mediated DxR uptake, the H1838 cells (1×10^5 cells/well) were seeded for 24 h at 37° C. […] The plates were then incubated for 2 h at 37° C. Afterwards, the cells were detached from the plates by trypsinization and transferred to FACS tubes. The cells were then washed twice by centrifugation with 0.5 mL buffer. Afterwards the cell pellets were resuspended in 100 μL 1×PBS buffer and cither irradiated with UV light for 5 minutes (_=365 nm, 350 mW/cm^2) or not irradiated before subjected to FACS analysis. Fluorescence emissions of the internalized DxR were recorded with a 585/42-nm band-pass filter.

H1838 cells [2] = assay: Confocal microscopy of photo-triggered DxR release in cells; format: cell-based, human; conditions: DxR 40 μM, 37° C., 2 h, without UV irradiation
Experimental: In vitro cell imaging of the cell internalization studies were performed using fluorescence microscopy. Prior to each experiment one 70 to 80% confluent flask was trypsinised and suspended with 10 ml of cell medium. 10 μL of the cell solution was pipetted onto a haemocytometer and the cells were counted. Twenty-four hours prior to the internalization experiments approximately 10,000 NSCLC cells were seeded in 96-well glass bottom multiwell cell culture plates (MatTek® Corporation). The plates were then incubated for 24 hours at 37° C. in 5% CO2-atmosphere. […]
To verify the HyApNc-mediated selective transport of DxR to target cells and its light-triggered release from motif 4, we monitored the fluorescence signal of DxR within and outside of the cell nuclei of H1838 cells that were treated with either free DxR (as control) or with HyApNc-DxR (see Example 1 for details of DxR loading), while keeping the DxR concentrations in the bound and the unbound form fixed at 40 μM (5 μM HyApNc carrying 8 equivalents of DxR). […] When control experiments were performed with a construct lacking DMAB (HyApNcw/oAz-DxR), near-identical DxR fluorescence signals are predominantly observed in the cytosol of the cells with and without UV exposure (FIG. 24A, IV-V).

[3] = system: NCI-H1838 lung cancer cells; assay: Cell viability (MTT) assay, dose dependent; format: cell-based; conditions: Homo sapiens, free DxR alone (control), MTT after 24 h
Experimental: To assess the cytotoxicity of free DxR and HyApNc-DxR in NCI-H1838 lung cancer cells, the H1838 cells (2×10^4 cells/well) were seeded in a 96 well plate and grown for 24 h. The cells were then washed with 1×PBS (200 μL) and subsequently treated with i) free DxR (as control), ii) HyApNc-DxR or iii) HyApNc.mut-DxR in a dose dependent way with a final DxR concentration ranging from 0.125μM to 50 μM per well. After 2 h of post-treatment, the cells were washed; the RPMI medium was replaced with a fresh RPMI medium, and subsequently either irradiated with UV light for 5 minutes (_=365 nm; 350 mW/cm^2), or not irradiated. Afterwards the cells were incubated for another 24 h at 37° C.
Then for both experiments, 15 μL of a 3-(4,5-dimethylthiazol-2-yl)-2,5-diphenyltetrazolium bromide (MTT) stock solution (5 mg/mL) was added to each well and the cells were incubated at 37° C. for 6 hours. After 6 h post-tretment with MTT solutions, 100 μL of the SDS-HCL solution was added to each well and mixed thoroughly with a pipette and incubated at 37° C. for an additional 12 hours. Finally the absorbance was measured at λ=570 nm by using a Tecan Infinite® M1000 PRO microplate reader.

[4] = Serum stability in PBS-buffered human blood serum (PAGE of 32P-labeled aptamer); format: in vitro ADME; conditions: 10% PBS-buffered HBS, 37° C., 0 to 72 h
Experimental: (§1) Serum stabilities of trCLN3, its two point mutant non-binding variant trCLN3.mut and their corresponding lipid-functionalized derivatives trCLN3-L4 and trCLN3.mut-L4 were investigated in fetal calf serum (FCS) and human blood serum. For this purpose, the aptamer motifs were labeled at their 5′-end with ^32P to form radiolabeled oligonucleotides. The degradation tests of all the aptamer motifs were performed for 60-72 h at 37°° C. 6 pmol (12 μl of 0.5 μM) of the radio-labeled aptamer (5′-end-labeled with γ-^32P) was incubated in a volume of 300 μl freshly thawed PBS-buffered FCS or human blood serum (270 μl serum+30 μl 10×PBS). For each measurement, 10 μl of the samples were removed, mixed with 90 μl of gel loading buffer (80% formamide+5 mM EDTA+0.01% SDS) and subsequently stored at −20° C. Aliquots of samples were taken after indicated time intervals of 0, 0.3, 1.5, 3, 6, 24, 48, 60 and 72h respectively. The serum stability of the aptamer in FCS or in HBS at different time intervals were analyzed on a denaturing PAGE by loading 10 μl of each sample onto a 10% TAE-Urea gel and running the gels for 90 minutes at 350 V. Gels were wrapped in clingfilm and exposed to a phosphorimager screen in a closed cassette over a period of 12 h and finally the residual intact aptamer bands were analyzed by scanning the screen in a phosphorimage-scanner (FujiFilm FLA 3000). Intensities of the residual intact aptamer bands were calculated applying AIDA image analyzer software program. Serums half-lives of the selected aptamers were determined by using a half-life curve-fitting data analysis program (GraphPad Prism).

[5] = Serum stability in PBS-buffered fetal calf serum (PAGE of 32P-labeled aptamer); format: in vitro ADME; conditions: 10% PBS-buffered FCS, 37° C., 0 to 72 h
Experimental: as §1

cMet [6] = molecular target: T1, cMet (Homo sapiens, UniProt P08581); assay: Filter retention assay with 32P-labeled aptamer; format: binding; conditions: filter retention assays
T1 construct: cMet-Fc, which represents the ectodomain of cMet fused to the Fc domain of human IgG1 was purchased from R&D Systems; purchased R&D Systems
Text: The anti-cMet aptamer trCLN3, a 40 nucleotide DNA oligonucleotide rich in guanine sequence, is known to form two intramolecular G-quadruplex structure within the G-rich segment of the aptamer. The G-quadruplex structure in trCLN3 is believed to play a role in target recognition and binding to cMet. […] See J. Vinkenborg et al., Angew Chem Int Ed. 2012, […], 9176-9180; which reference is incorporated herein in its entirety. Binding affinity of trCLN3.mut, a control sequence with a guanine double-point mutation corresponding to G7 and G25 was further verified by filter retention assays.

cMet [7] = molecular target: T1, cMet; assay: Competitive filter-binding assay against γ-32P-labeled trCLN3; conditions: competition with γ-32P-trCLN3, cMet ~50 nM, competitor 1 μM-25 pM, 37° C.
Experimental: To test the effect of lipid-modification on trCLN3 binding properties, we determined IC50 values for each trCLN3 derivative by a competitive filter retention assay in which varying concentrations of unlabeled 5′-(1-dodecynyl)-functionalized trCLN3 aptamers competed with constant amounts of γ-^32P-labeled trCLN3 in binding to cMet. Two control experiments were also performed using unlabeled trCLN3 and its two point mutant variant trCLN3.mut as competitors.
First, the trCLN3 motif was 5′-end-labeled with γ-^32P ATP using T4 polynucleotide kinase. An aliquot of 20 μL solution containing 50 pmol trCLN3. 6.7 pmol γ-^32P ATP and 20 U T4 polynucleotide kinase in 1× polynucleotide kinase buffer (New England Biolabs) was incubated at 37° C. for 45 min. followed by removal of unreacted γ-^32P ATP using an Illustra G-25 microspin column (GE Healthcare. München, Germany). The purity of the radiolabeled aptamer was confirmed using a 10% PAGE-gel.
0.25 mg/ml BSA. 2 mM MgCl2 in 1×PBS, pH 7.4. […] Residual radioactivity due to cMet bound labeled aptamers was quantified using Fujifilm Fla-3000 PhosphorImager and AIDA software. The curves were fitted with GraphPadPrism 3.02 plotting non-linear regression curve and the IC50 values have been calculated assuming a competition for single binding site.

cMet [8] = molecular target: T1, cMet; conditions: binding to HGFR (cMet); read-out: dissociation constant (Kd); cited from earlier work

T1 sequence (P08581 25-932 limits assumed): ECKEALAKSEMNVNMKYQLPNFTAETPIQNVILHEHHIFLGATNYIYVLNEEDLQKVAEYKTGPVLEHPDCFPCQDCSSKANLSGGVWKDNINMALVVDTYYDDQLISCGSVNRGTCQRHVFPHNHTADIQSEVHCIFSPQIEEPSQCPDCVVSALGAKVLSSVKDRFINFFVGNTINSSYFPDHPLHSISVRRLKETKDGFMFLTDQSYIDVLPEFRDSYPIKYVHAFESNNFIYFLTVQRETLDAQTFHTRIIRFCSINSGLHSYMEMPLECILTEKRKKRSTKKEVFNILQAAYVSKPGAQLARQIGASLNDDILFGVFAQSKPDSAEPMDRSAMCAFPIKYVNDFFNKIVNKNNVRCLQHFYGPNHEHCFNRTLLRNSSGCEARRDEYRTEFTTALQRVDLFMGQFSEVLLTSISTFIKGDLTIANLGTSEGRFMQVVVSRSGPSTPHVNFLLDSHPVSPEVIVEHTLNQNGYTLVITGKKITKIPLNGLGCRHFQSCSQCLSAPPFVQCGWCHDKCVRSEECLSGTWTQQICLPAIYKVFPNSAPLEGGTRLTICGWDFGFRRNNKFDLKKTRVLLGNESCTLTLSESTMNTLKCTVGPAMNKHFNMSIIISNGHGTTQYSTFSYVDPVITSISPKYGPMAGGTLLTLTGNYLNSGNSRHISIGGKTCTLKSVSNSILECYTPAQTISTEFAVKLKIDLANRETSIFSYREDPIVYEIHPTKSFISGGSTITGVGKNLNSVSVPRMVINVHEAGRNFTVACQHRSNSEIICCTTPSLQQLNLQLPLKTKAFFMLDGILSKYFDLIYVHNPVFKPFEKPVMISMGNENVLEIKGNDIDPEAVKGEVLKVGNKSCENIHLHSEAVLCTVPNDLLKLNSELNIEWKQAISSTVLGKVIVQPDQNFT

Row | Molecule | increase in mean cellular fluorescence intensity vs equivalent dose of HyApNc-DxR or HyApNcw/oAz-DxR (H1838 cells [1]) | DxR fluorescence in cell nuclei (confocal) (H1838 cells [2]) | IC50 [3] | serum half-life (t1/2) [4] | serum half-life (t1/2) [5] | binding to cMet (cMet [6]) | IC50 (cMet [7]) | Kd (cMet [8])
1 | COc1cccc2c1C(=O)c1c(O)c3c(c(O)c1C2=O)C[C@@](O)(C(=O)CO)C[C@@H]3O[C@H]1C[C@H](N)[C@H](O)[C@H](C)O1 [free DxR, (7S,9S)-7-[(2R,4S,5S,6S)-4-amino-5-hydroxy-6-methyloxan-2-yl]oxy-6,9,11-trihydroxy-9-(2-hydroxyacetyl)-4-methoxy-8,10-dihydro-7H-tetracene-5,12-dione] | 5 fold | Strong DxR fluorescence | 8 µM and 4.7 µg/mL |  |  |  |  | 
2 | trCLN3.mut: non-binding control sequence of trCLN3 with guanine double-point mutation at G7 and G25 (DNA TGGATGATAGCTCGGTCGGGGTGGATGGGTTGGCAAGTCT; DNA, backbone and methylation of C not given here) |  |  |  | 1.9 h | 2.8 h | almost no binding |  | 
3 | trCLN3: 40-nucleotide anti-cMet DNA aptamer, 5′-TGGATGGTAGCTCGGTCGGGGTGGGTGGGTTGGCAAGTCT-3′ (DNA, backbone and methylation of C not given here) |  |  |  | 4.9 h | 8.7 h |  | 56 nM | 38 nM
